{
  "source": "patent EP0383856B1",
  "about": "“USE OF PEPTIDES FOR INHIBITING BLOOD VESSEL BLOCKAGE” (SOCIETE DE CONSEILS DE […] D'APPLICATIONS SCIENTIFIQUES …, priority 1988, dated 1989)",
  "key": {"[1]": {"tested_on": "myointimal proliferation of the carotid artery", "assay": "Air-drying injury of the rat carotid artery, myointimal proliferation (maximal intimal/media ratio, morphometry)", "assay_type": "in vivo, Sprague-Dawley rats", "procedure": "Male Sprague-Dawley rats, weighing […], obtained from Charles River were kept under controlled lighting conditions and fed rat chow and water ad libitum. Under sodium pentobarbital anesthesia the intima of the right carotid artery was subjected to an air-drying injury described by Fishman et al, Lab Invest., 32, 339 (1975). This procedure causes intimal hyperplasia that largely consists of proliferating intimal smooth muscle cells. In this model approximately 4 cm of the vessel is isolated and drained of blood. Air (20 ml/min) is blown through a 30 gauge needle for 5 min whereafter blood flow is reestablished. The contralateral carotid artery was also exposed but not air-dried. The rats were sacrificed 15 days later.\nThe experiment consisted of a control group and ten treatment groups. The somatostatin analogs used were hepta- or octapeptides, namely BIM 23014 (Angiopeptin), BIM 23012, BIM 23027, BIM 23030 and BIM 23034. […] The animals were pretreated two days prior to the procedure and for a further five days following the endothelial injury. Two additional groups of animals were added in order to study whether Angiopeptin (20 µg/kg/day and 50 µg/kg/day) administered 30 min prior to the endothelial injury and for a further five days would protect against the myointimal proliferation.\nThe animals were sacrificed on day 15 following the injury by exsanguination. The vascular system was flushed with normal saline and perfusion-fixed at 80 mmHg with 10% formalin. The carotid arteries were subsequently fixed, embedded and sectioned for light microscopy and morphometric analysis. The maximal intimal/media ratio is the distance from the lumen to the internal elastic lamina and the distance from the internal elastic lamina to the external elastic lamina. The distances were determined in each vessel using a digitizing system attached to a light microscope. The determinations were performed on three different cross sections of the vessel and each section was measured three times. The mean was calculated for each vessel. Differences between the groups were evaluated using Student's unpaired t-test."}, "Myointimal Hyperplasia": {"tested_on": "Myointimal Hyperplasia", "assay": "Myointimal hyperplasia in rabbits after balloon angioplasty of iliac artery and aorta (morphometry)", "assay_type": "in vivo, white New Zealand rabbits", "settings": "for percentage of inhibition of myointimal hyperplasia: 20 µg/kg/d; for % Intimal hyperplasia, Mean: group mean; for % Intimal hyperplasia: individual samples", "procedure": "Female and Male, white New Zealand rabbits (2.8-3.0 kg) were divided into two groups (A and B). Group A (vehicle control) received subcutaneous injections of physiological saline (0.2 ml) twice daily. […] The animals were treated the day before angioplasty, and until sacrifice about 3 weeks later. The angioplasty was done under general anesthesia with Ketamine and Xylazine. Each animal's left iliac artery and aorta were denuded with an angioplasty catheter (Fogarty). The angioplasty catheter was inserted into the left femoral artery and passed through the vessel to the thoracic aorta. The catheter was then reciprocated three times. The animals were all sacrificed from days 22-24 after angioplasty. The aorta and iliac arteries were fixed in situ via perfusion with formaldehyde under constant perfusion pressure.\nIntimal hyperplasia was determined on elastin-stained (Van Giesen) horizontally-cut sections. The sections were obtained from (i) the aorta at the level of the renal artery, (ii) the common iliac artery at the level of bifurcation, and (iii) the external iliac artery just above the inguinal ligament. The area of intimal hyperplasia and total vessel area were determined by morphometry. The percentage of intimal hyperplasia was expressed as follows: [formula] Single determinations were made on three segments of each aorta and the two iliac arteries of each animal. The percentage of intimal hyperplasia was determined as the mean of the two closest measurements of each vessel."}, "[2]": {"tested_on": "smooth muscle cell proliferation", "assay": "Primate balloon catheter injury of aorta and femoral arteries, smooth muscle cell proliferation", "assay_type": "in vivo, cynomologous macaques", "settings": "aorta and left and right femoral arteries; i.m. slow release system, total 50 µg/kg/day; one treated animal versus one control; five weeks", "procedure": "In order to obtain a primate coronary angioplasty model which would be suited for evaluation of Angiopeptin, a feasibility study was performed on primates which were made available from the colony at Bowman-Gray Medical School, Winston-Salem, North Carolina. These animals were culled from the colony due to failure of the primates to satisfactorily elevate blood lipids when administered a high cholesterol diet. Young male cynomologous macaques weighing approximately 3.5 kg were used after an equilibration period of more than a week in a primate facility.\nThe animals were sedated with Ketamine and maintained with 1% halothane in oxygen. The aorta and femoral arteries were injured by a balloon catheter (USCI, Band). After five weeks the primates were anesthetized and sacrificed. The aorta and femoral arteries were removed and fixed in formaldehyde for morphometric analysis. […]\nThe maximal intimal/media ratio (distance from lumen to internal elastic lamina/distance from internal elastic lamina to external elastic lamina) was determined in each vessel using a digitizing system attached to a light microscope. The determinations were done on three different cross sections of the vessel and each section was measured three times and each three measurements were averaged."}, "[3]": {"tested_on": "myointimal cell proliferation in the aortas of rabbits", "assay": "Rabbit aorta 72 hours after balloon angioplasty: wet weight, protein, DNA/protein, 3-H thymidine incorporation", "assay_type": "in vivo, New Zealand White Rabbits", "settings": "for Levels of Proteins (total protein content of the injured aortas): Fig. 2; for DNA/Protein Ratio: Fig. 3; for Thymidine (3-H) Incorporation (rates of cell proliferation): Fig. 4", "procedure": "New Zealand White Rabbits were anesthetised with Rompun (Xylazine) and Ketalar (Ketamine) and a cannula (3F Fogarty) was inserted from the femoral artery. The balloon was inflated at a constant pressure and the aorta was deendothelialised by angioplasty. The process was repeated three times and the wound site was closed. The animals were sacrificed 72 hours after balloon angioplasty and after removing the adventitia the aorta was cut into fine rings. These rings were incubated in the presence of 3-H thymidine and the radioactivity was determined after processing the tissue. Simultaneous measurements of DNA and protein contents were also made in these tissues.\nEight injections of Angiopeptin were made: on the morning and evening of the day prior to ballooning; two on the day of the procedure; and two on each of the following two days. The total daily dose was 2, 20, or 200 µg/Kg body weight."}, "[4]": {"tested_on": "smooth muscle pig left coronary artery explants", "assay": "H3-thymidine incorporation in denuded pig left coronary artery explants", "assay_type": "cell-based, Domestic pig", "settings": "24 hr, individual segments", "procedure": "Domestic pig hearts were obtained from a slaughter house immediately after the animals were sacrificed. The hearts were harvested and placed in ice-cold Kreb's Ringer buffer and transported to the laboratory. The left coronary artery (LAD) was dissected in aseptic conditions and divided into pieces of 5 mm. The segments were denuded from the endothelium by gently introducing a metallic rod in the lumen. The tissues were placed in sterile multiwell culture dishes in 1 ml of culture media (DMEM with antibiotics) and without fetal calf serum. H³-thymidine (2.5 uCi/ml) and increasing concentrations of angiopeptin (10-1000 ng/ml) were added to the medium. Segments which were incubated with 3 different concentrations of forskolin were used as a positive control in each experiment. The incubation period was 24 hr at 37°C and 5% CO₂. The tissues were washed with phosphate saline buffer and placed in a solution of cold thymidine for one hour and then frozen in liquid nitrogen, ground and lysed with a hypotonic solution. The lysed tissues were further incubated with proteinase K overnight at 50°C. The radioactivity, content of protein and DNA were measured."}, "growth hormone release": {"tested_on": "growth hormone release", "settings": "in vivo, from Heiman et al., Coy et al., Tolis et al., cited from earlier work"}, "[5]": {"settings": "common iliac artery, female rabbits"}, "[6]": {"settings": "common iliac artery, male rabbits"}, "[7]": {"settings": "external iliac artery, female rabbits"}, "[8]": {"settings": "external iliac artery, male rabbits"}},
  "note": "Several values for one entry are separate records, joined by “and”; a condition that tells them apart may be missing. Equal values may be shown once. Read-outs that look alike come from different tables or passages of the source.",
  "data": [
    {"molecule": "CC(C)[C@@H]1NC(=O)[C@H](CCCCN)NC(=O)[C@@H](Cc2c[nH]c3ccccc23)NC(=O)[C@H](Cc2ccc(O)cc2)NC(=O)[C@@H](NC(=O)[C@H](N)Cc2ccc3ccccc3c2)CSSC[C@@H](C(=O)N[C@H](C(N)=O)[C@@H](C)O)NC1=O", "note": "[Angiopeptin, D-Nal-Cys-Tyr-D-Trp-Lys-Val-Cys-Thr-NH₂]", "values": [
      {"measurement": "myointimal proliferation of the carotid artery following endothelial injury by air drying", "setting": "[1]; 20 µg/kg/day s.c. in two divided doses, from two days prior to injury and five days after, sacrifice day 15", "value": "effective"},
      {"measurement": "myointimal proliferation of the carotid artery following endothelial injury by air drying", "setting": "[1]; 50 µg/kg/day s.c. in two divided doses, from two days prior to injury and five days after, sacrifice day 15", "value": "effective"},
      {"measurement": "myointimal proliferation", "setting": "[1]; 50 µg/kg/day, started 30 min prior to the arterial injury and for a further five days", "value": "significantly (p<0.01) inhibited"},
      {"measurement": "myointimal proliferation of the carotid artery following endothelial injury by air drying", "setting": "[1]; overall statement for the doses used (20 and 50 µg/kg/day s.c.), started two days prior to injury", "value": "inhibited significantly (P<0.01)"},
      {"measurement": "percentage of inhibition of myointimal hyperplasia", "setting": "Myointimal Hyperplasia; aorta, female rabbits", "value": "~43", "unit": "%"},
      {"measurement": "% Intimal hyperplasia, Mean", "setting": "Myointimal Hyperplasia; aorta, female rabbits", "value": 12.5, "unit": "%"},
      {"measurement": "% Intimal hyperplasia", "setting": "Myointimal Hyperplasia; aorta, female rabbits", "value": "13.0% and 10.7% and 12.8% and 19.5% and 6.4%"},
      {"measurement": "percentage of inhibition of myointimal hyperplasia", "setting": "Myointimal Hyperplasia; aorta, male rabbits", "value": "~32", "unit": "%"},
      {"measurement": "% Intimal hyperplasia, Mean", "setting": "Myointimal Hyperplasia; aorta, male rabbits", "value": 14.8, "unit": "%"},
      {"measurement": "% Intimal hyperplasia", "setting": "Myointimal Hyperplasia; aorta, male rabbits", "value": "15.9% and 17.0% and 12.4% and 13.3% and 13.8% and 15.7% (2×)"},
      {"measurement": "percentage of inhibition of myointimal hyperplasia", "setting": "Myointimal Hyperplasia; [5]", "value": "~33", "unit": "%"},
      {"measurement": "% Intimal hyperplasia, Mean", "setting": "Myointimal Hyperplasia; [5]", "value": 13.1, "unit": "%"},
      {"measurement": "% Intimal hyperplasia", "setting": "Myointimal Hyperplasia; [5]", "value": "6.5% and 9.3% and 9.5% and 19.7% and 20.5% and 15.3% and 16.6% and 7.7%"},
      {"measurement": "percentage of inhibition of myointimal hyperplasia", "setting": "Myointimal Hyperplasia; [6]", "value": "~39", "unit": "%"},
      {"measurement": "% Intimal hyperplasia, Mean", "setting": "Myointimal Hyperplasia; [6]", "value": 14.1, "unit": "%"},
      {"measurement": "% Intimal hyperplasia", "setting": "Myointimal Hyperplasia; [6]", "value": "14.9% and 16.0% and 6.4% and 17.4% and 13.9% and 15.8% and 14.0%"},
      {"measurement": "percentage of inhibition of myointimal hyperplasia", "setting": "Myointimal Hyperplasia; [7]", "value": "about 41%"},
      {"measurement": "% Intimal hyperplasia, Mean", "setting": "Myointimal Hyperplasia; [7]", "value": 20.7, "unit": "%"},
      {"measurement": "% Intimal hyperplasia", "setting": "Myointimal Hyperplasia; [7]", "value": "17.8% and 26.4% and 15.2% and 21.3% and 33.6% and 24.1% and 20.6% and 6.6%"},
      {"measurement": "percentage of inhibition of myointimal hyperplasia", "setting": "Myointimal Hyperplasia; [8]", "value": "~20", "unit": "%"},
      {"measurement": "% Intimal hyperplasia, Mean", "setting": "Myointimal Hyperplasia; [8]", "value": 24.4, "unit": "%"},
      {"measurement": "% Intimal hyperplasia", "setting": "Myointimal Hyperplasia; [8]", "value": "30.5% and 19.2% and 25.7% and 26.5% and 22.3% and 37.9% and 22.2%"},
      {"measurement": "inhibition of smooth muscle cell proliferation", "setting": "[2]", "value": "nearly complete inhibition"},
      {"measurement": "Levels of Proteins (total protein content of the injured aortas)", "setting": "[3]; 2 µg/kg body wt.", "value": "lowered the total protein content"},
      {"measurement": "DNA/Protein Ratio", "setting": "[3]; 20 µg/kg body weight", "value": "significantly lowered"},
      {"measurement": "Thymidine (3-H) Incorporation (rates of cell proliferation)", "setting": "[3]; 20 µg/kg body wt.", "value": "significantly lower"},
      {"measurement": "DNA/Protein Ratio", "setting": "[3]; 200 µg/kg body wt.", "value": "reflected the inhibitory influence"},
      {"measurement": "Thymidine (3-H) Incorporation (rates of cell proliferation)", "setting": "[3]; 200 µg/kg", "value": "still inhibited the myointimal proliferation"},
      {"measurement": "Wet Weight of aortas", "setting": "[3]; 2, 20 and 200 µg/kg body wt. daily, 72 hours after balloon angioplasty, Fig. 1", "value": "does not seem to influence"},
      {"measurement": "Levels of Proteins (total protein content of the injured aortas)", "setting": "[3]; higher doses (20 and 200 µg/kg body wt.)", "value": "did not affect the levels of total proteins"},
      {"measurement": "CPM", "setting": "[4]; Angiopeptin 10 ng/ml", "value": "35113.84 CPM and 46392.32 CPM and 27312.80 CPM and 55980.00 CPM"},
      {"measurement": "CPM", "setting": "[4]; Angiopeptin 20 ng/ml", "value": "26279.81 CPM and 39027.27 CPM and 39706.01 CPM and 21562.08 CPM"},
      {"measurement": "CPM", "setting": "[4]; Angiopeptin 50 ng/ml", "value": "24269.18 CPM and 40768.09 CPM and 18983.78 CPM and 18942.16 CPM"},
      {"measurement": "CPM", "setting": "[4]; Angiopeptin 100 ng/ml", "value": "20794.85 CPM and 32402.31 CPM and 22033.48 CPM and 26227.64 CPM"},
      {"measurement": "CPM", "setting": "[4]; Angiopeptin […] (so in the source)", "value": "18325.51 CPM and 27260.98 CPM and 30226.99 CPM and 32344.58 CPM"},
      {"measurement": "inhibition of growth hormone release", "setting": "growth hormone release", "value": "less active"},
      {"measurement": "inhibition of growth hormone release", "setting": "growth hormone release; listed as BIM 23014", "value": "potent inhibitors of growth hormone release"}
    ]}
  ]
}
